From PMC12649353, “Bioavailability of Thymol Incorporated into Gastro-Resistant Self-Emulsifying Pellets in Rabbits” (Animals : an Open Access Journal from MDPI, 2025)
Where “and” joins values, the source holds several entries; their conditions need not be identical. Identical values can stand only once. Like-named read-outs stand apart in the source and are kept apart here.

How the values were obtained:
[1] = Thymol stability in feed (HPLC); assay type: physicochemical; details: enteric SES pellets in feed
Procedure: Thymol evaporation in feed was analysed every week during thymol application using high-performance liquid chromatography (HPLC) according to the modified method of Oceľová [10] and Pisarčíková et al.. Samples were analysed in triplicate. Briefly, 2 mL of methanol was added to a glass tube containing 0.2 g of milled feed, and thymol was extracted in an ultrasonic bath. The methanolic extract was then analysed using the HPLC method with an Ultimate 3000 HPLC-system liquid chromatograph (Dionex, Sunnyvale, CA, USA). The chromatographic analyses were evaluated using Chromeleon® Software Version 6.80 SR10 Build 2906 (Thermo Fisher Scientific, Waltham, MA, USA).

[2] = Growth performance of broiler rabbits fed thymol pellets; assay type: in vivo; details: for live weight / average weight gain per rabbit / conversion ratio: EG
Procedure: The experiment lasted 28 days.
Body weight (BW) and feed intake (FI) were recorded individually once a week. The average daily FI, average daily weight gain (WG) and feed conversion ratio (FCR) were calculated at the end of the period (at 56 d of age and 63 d of age).

[3] = Thymol in plasma, tissues, large intestinal content and faeces (SPME GC/MS)
Procedure: A total of 48 rabbits of both sexes (an equal male-to-female ratio per treatment) at five weeks of age were randomly divided into two dietary treatment groups (24 rabbits in each); a control group (CG) fed a standard diet to which enteric pellets without thymol were added and an experimental group (EG) fed a standard diet into which enteric pellets with thymol (250 mg/kg) were incorporated. Plasma and tissue samples from the control group were used as blank samples to construct calibration curves. The rabbits of meat line M91, maternal albinotic line (cross breed New Zealand White, Bouscat rabbit, Argente Champagnet rabbit) and paternal acromalictic line (crossbreed Nitra’s rabbit, Californian rabbit, Big light silver) were used in this experiment. The animals were fed ad libitum and had free access to drinking water. All the experimental wire-net cages (61 cm × 34 cm × 33 cm) were kept in rooms with automatic temperature and humidity control through a digital thermograph (22 ± 4 °C, 70 ± 5%). A lighting regimen of 16 h light and 8 h dark was applied throughout the experiment. The experiment lasted 28 days. The EG rabbits received feed with thymol pellets for 21 days (56 d of age) and for the next 7 days (63 d of age) received pellets without thymol incorporated into feed.
To determine the thymol content in plasma, blood (1.5 mL) from nine rabbits was collected from the marginal ear vein (vena auricularis) into heparinised Eppendorf tubes, and plasma was obtained after centrifugation at 1180× g for 15 min. The gastrointestinal tract was removed from the body cavity and was divided into the small intestine (duodenum and jejunum), caecum and colon (n = 9). Caecum and colon contents were removed, and the small intestinal lumen was gently washed with a 0.9% NaCl solution. The obtained samples of duodenal wall (DW), jejunal wall (JW) and gut content together with plasma, liver, kidney, muscle (longissimus thoracis et lumborum, LTL) and spleen tissue, fat, and faeces were immediately frozen in liquid nitrogen and stored at −70 °C until analysed. All samples were collected on both experimental days (56 or 63 d of age).
Thymol was determined using solid-phase microextraction (SPME) coupled with gas chromatography/mass spectrometry (GC/MS). The analytical system comprised an Agilent 7890A gas chromatograph (Agilent Technologies, Wilmington, DE, USA) interfaced with an Agilent 5975C Mass Selective Detector (VL MSD with Triple-Axis Detector), Agilent Technologies, Wilmington, DE, USA). Chromatographic separation was achieved on an HP-5MS capillary column (Agilent 19091S-433) with dimensions of 30 m in length, 0.250 mm inner diameter and 0.25 μm film thickness. Helium served as the carrier gas under strictly controlled flow (an initial flow rate of 2.77 mL/min and a post-run flow of 1.3 mL/min) and inlet pressure (approximately 23.27 psi). Sample preparation was carried out using solid-phase microextraction (SPME), a solvent-free and efficient extraction technique that utilises the adsorption of analytes onto a polymer-coated fibre. For this purpose, a 65 μm polydimethylsiloxane/divinylbenzene (PDMS/DVB) StableFlex fibre assembly (23Ga, Supelco 57293-U, Sigma-Aldrich, St. Louis, MO, USA) was employed in combination with a PAL autosampler (CTC Analytics, Zwingen, Switzerland). Due to fibre wear, the SPME fibre was replaced after every 40 to 60 samples to ensure consistent extraction performance.
For determination of the total content of thymol plasma and homogenized tissue samples were enzymatically hydrolysed with β-glucuronidase from Helix pomatia (Sigma-Aldrich, St. Louis, MO, USA) at 37 °C and pH 5 for 30 min to cleave thymol conjugates. Following hydrolysis, samples were salted out with sodium chloride (1.00 g), acidified with phosphoric acid (85%) and spiked with an o-cresol internal standard. All reagent concentrations and incubation conditions were applied as described in the previous study by Oceľová et al..

[4] = design: method as in earlier work; details: weak acid; cited from earlier work
[5] = cited from earlier work
[6] = thymol 250 mg/kg feed, 56 d of age
[7] = powder form, after thymol withdrawal
[8] = same concentration of thymol, powder non-pelleted form

## Cc1ccc(C(C)C)c(O)c1 [thymol, Thymol]
[1]; 0 d of thymol application
  concentration of thymol in feed: 246.1 ± 5.8 µg/g DM
[1]; 7 d of thymol application
  concentration of thymol in feed: 197.8 ± 8.3 µg/g DM
[1]; 14 d of thymol application
  concentration of thymol in feed: 221.9 ± 5.1 µg/g DM
[2]; 63 d of age (7 d after thymol withdrawal)
  live weight: 2525 ± 63.2 g
[2]; 63 d of age (after withdrawal)
  average weight gain per rabbit: 40.24 ± 2.94 g/day
  conversion ratio: 4.24 ± 0.29
[2]; [6]
  average weight gain per rabbit: 36.25 ± 1.48 g/day
  conversion ratio: 4.44 ± 0.25
[2]; thymol 250 mg/kg feed, 56 d of age (21 d with thymol)
  live weight: 2497 ± 46.9 g
[2]; thymol addition 250 mg/kg feed vs control
  growth performance: not influenced
[3]; after thymol withdrawal (7 d)
  thymol in muscle: below LOQ
  thymol in plasma: below LOQ
  thymol in spleen: below LOQ
[3]; both, rabbit, in vivo
  Spearman correlation (rs) of thymol concentration, DW and kidney: 0.9833
  Spearman correlation (rs) of thymol concentration, DW and muscle: 0.8167
  Spearman correlation (rs) of thymol concentration, JW and muscle: 0.8500
  Spearman correlation (rs) of thymol concentration, plasma and kidney: 0.9167
  Spearman correlation (rs) of thymol concentration, plasma and muscle: 0.8667
  thymol concentration in DW, times higher than in JW: 1.1 times
  thymol concentration in DW, times higher than in caecum: 1.9 times
  thymol concentration in DW, times higher than in colon: 1.3 times
[3]; both, rabbit, in vivo, 250 mg/kg
  concentration at 21 d: 213 ng/mL and 753 ng/g
[3]; both, rabbit, in vivo, 21 d
  Spearman correlation (rs) of thymol concentration, plasma and DW: 0.9333
  thymol concentration in DW, times higher than in JW: 1.4 times
  thymol concentration in DW, times higher than in caecum: 1.7 times
  thymol concentration in DW, times higher than in colon: 1.3 times
[3]; rabbit, in vivo
  thymol in all tissues (plasma, liver, kidney, spleen, fat, muscle) and entire intestinal tract: above LOQ
[4]
  dissociation constant pKA: 10.62
[5]; [7]
  thymol in all intestinal segments and organs: below the detection limit
  thymol in spleen: not detected
[5]; powder form, during application
  thymol in muscle and fat tissues: below the detection limit
[5]; [8]
  thymol concentration in DW, times lower than in caecum: 3.3 times
  thymol concentration in DW, times lower than in colon: 2.5 times
